Laboratory results taken from PMC12340957, “Interactions between Lipopolysaccharide and Peptide Bacteriocin BacSp222 Influence Their Biological Activities” (ACS Infectious Diseases, 2025).
Ends that are not written are not given here. * marks the point of attachment. For = O=C*

Tests used:
[1] = test system: TLR2/TLR6 heterodimer; details: cited from earlier work
From the text: A good example of such a multifunctional and immunomodulatory bacteriocin is the peptide BacSp222, produced by an opportunistic canine pathogen, strain 222. BacSp222 is a 50 amino acid long linear peptide encoded on a plasmid and is produced without a leader sequence, retaining a formylated N-terminal methionine.

[2] = Dynamic light scattering, hydrodynamic radius; type: physicochemical; details: BacSp222 alone at 5, 50, 500 μg/mL, DLS, PBS, 37 °C
Protocol: For dynamic light scattering experiments, (1) the solution of PBS without Ca^2+ and Mg^2+ or PBS without Ca^2+ and Mg^2+ with (2) 50 μg/mL LPS O55:B5 (IEC), (3) 50 μg/mL LPS O111:B4 (IEC), (4) BacSp222 at concentration 5, 50, and 500 μg/mL, or (5) 50 μg/mL LPS O55/B5 (IEC) + BacSp222 at concentration 5, 50, and 500 μg/mL were incubated for 15 min at 37 °C. Then, the hydrodynamic radius of the LPS and BacSp222 molecules, as well as LPS-BacSp222 complexes, was determined by dynamic light scattering (DLS) on the Prometheus Panta apparatus (NanoTemper, Munich, Germany). Prometheus Standard Capillaries (NanoTemper, Munich, Germany) were used in the experiments, and the measurements were taken at 37 °C. The results were processed by the instrument software (Prometheus Panta Software).

[3] = test system: hemolymph phenoloxidase; assay: Hemolymph phenoloxidase (PO) activation in larvae; type: in vivo, greater wax moth; details: for PO activity after BacSp222 alone: 5 μL injection
Protocol: The experiments were based on a previously published protocol. The greater wax moth was reared in the dark on honeybee nest debris at 28 °C and 70% humidity. Last instar larvae were used for the experiments. To test the activation of the phenoloxidase (PO) system by LPS, larvae were divided into groups of 10 insects. One group was injected with PBS buffer without Ca^2+ and Mg^2+, the other one with 1 μg of LPS O55:B5 (IEC) diluted in PBS, and the next one with the mixture of 1 μg of LPS and BacSp222 at concentrations 3, 6, or 30 μM. The last group was treated with the bacteriocin alone at the same concentrations. Before injection, all prepared solutions were preincubated for 30 min at 30 °C for possible complex formation, while the puncture surface of each larva was disinfected with 70% ethanol. Injection was done in the last but one proleg by a Hamilton syringe at a volume of 5 μL. After injection, the larvae were placed in Petri dishes on sterile filter paper. Bleeding larvae were excluded from the experiment. […]
The assay was performed similarly to the previous papers. , The hemolymph was diluted 5 times in apyrogenic water, and 2 μL of this dilution was added to 18 μL of buffer A (50 mM Tris–HCl pH 7.4, 150 mM NaCl, 5 mM CaCl2) in a 96-well plate. After 20 min of preincubation at room temperature, 180 μL of a 2 mM solution of 3,4-dihydroxy- L -phenylalanine (L-DOPA) in buffer B (50 mM Na2HPO4, 50 mM NaH2PO4; pH 6.5) was added, and then, the absorbance at 490 nm was measured immediately (time 0) at the indicated time-points. […]
All experiments were conducted three times independently, except for the DLS and ITC measurements, which were performed once and twice, respectively. […] For experiments concerning measurements of TNF, NO, cellular metabolic activity, TLRs activation, and LAL assay, the statistical significance of differences between the particular result and control was calculated using a two-way ANOVA with Tukey’s multiple comparison test as a posthoc test and shown in figures as asterisks *, **, or ***, indicating p < 0.05, p < 0.01, and p < 0.001, respectively. […]

[4] = test system: ATCC 25923, ATCC 29663, ATCC 6633, and ATCC 4698; assay: Residual bactericidal activity, radial diffusion assay; type: cell-based; details: 10 or 50 μM BacSp222, 16 h, n = 3
Protocol: The residual bactericidal activity of BacSp222 after preincubation with different LPS serotypes and at different mass proportions was determined using radial diffusion assay toward the following bacteria: ATCC 25923, ATCC 29663, ATCC 6633, and ATCC 4698. BacSp222 at final concentrations of 10 μM (for and ) or 50 μM (for and ) was preincubated in PBS without Ca^2+ and Mg^2+ for 15 min at 37 °C with LPS O55:B5 (IEC) or O111:B4 (PE and IEC) at proportions equivalent to 1:1 or 1:17 mass ratios (BacSp222:LPS). After preincubation, 5 μL aliquots of the solutions were dispensed as drops at different sites of soft Mueller–Hinton Broth II (MHBII, Merck, Darmstadt, Germany) plates containing 0.75% (w/v) agarose and a suspension of the tested bacteria strains. After liquid preparations were entered into the solid medium, the plates were incubated at 37 °C for 16 h, and the antibacterial activity of the studied samples was determined as the diameter of the bacterial growth inhibition zone. In each experiment, the appropriate controls were applied on the plate, and they comprised adequate amounts of BacSp222 and LPS not incubated together.

[5] = test system: FPR2; set-up: method as in number not given; details: ref number not given; cited from earlier work

For-MAGLLRFLLSKGRALYNWAKSHVGKVWEWLKSGATYEQIKEWIENALGWR [BacSp222]
affinity for TLR2/TLR6 heterodimer vs synthetic ligands ([1]; kinetic studies, vs ligands based on lipoteichoic acids or lipopeptides, ref number not given): lower affinity for the TLR2/TLR6 heterodimer than synthetic ligands | recognition by TLR2/TLR6 ([1]; ref our recent studies (ref 15)): recognized by the TLR2/TLR6 receptor heterodimer | oligomerization in solution [2]: has a tendency to oligomerize in solutions | PO activity after BacSp222 alone ([3]; 3 μM BacSp222 alone (printed "bacteriocin alone")): PO activity at a similar level as the injection of PBS buffer | inhibition of LPS-induced PO activation ([3]; 3 μM BacSp222 preincubated (30 min, 30 °C) and coinjected with 1 μg LPS O55:B5 (IEC), n = 3, printed "inhibited ... to about 50%"): about 50% | PO activity after BacSp222 alone ([3]; 6 μM BacSp222 alone): induced PO activity | effect of LPS on bactericidal potential of BacSp222 ([4]; 17-fold mass excess of LPS (1:17), all strains but one exception): completely inhibited the killing potential of BacSp222 | effect of LPS on bactericidal potential of BacSp222 ([4]; BacSp222:LPS 1:1 mass ratio, all LPS preparations, all four strains, preincubated 15 min 37 °C, peptide referred to as "bacteriocin"/"the peptide"): only marginally reduces the bactericidal potential of the peptide | activation of FPR2 [5]: cannot activate
